Experimental data taken from patent US20060069132A1, “Azolecarboxamide herbicides” (priority 2004, published 2006).

How the values were obtained:
rice = test: Test B flooded paddy test; assay type: in vivo, Oryza sativa; details: 1000 g ai/ha, visual rating, scale 0 to 100 (0 no effect, 100 complete control), 13 to 15 days
Summary of the method: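 Formulated test chemicals went onto postemergence plants measuring 2 to 18 cm, at one to four leaves. For the paddy assay, species had reached two leaves. Scoring took place 13–15 days later by eye, relative to untreated plants, using 0 for no effect up to 100 for full control.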

[1] = system: small flower umbrella sedge; test: Test B flooded paddy test; assay type: in vivo, Cyperus difformis; details: 1000 g ai/ha, visual rating, scale 0 to 100 (0 no effect, 100 complete control), 13 to 15 days
Summary of the method: (§1)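 After treating 2-leaf paddy plants or 2–18 cm postemergence plants (1 to 4 leaves) with formulated chemical, researchers kept them in a greenhouse for 13–15 days. Effects were judged visually versus controls: 0 indicates none, 100 total control.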

wild oat = test: Test B postemergence herbicide test; assay type: in vivo, Avena fatua; details: postemergence, visual rating, scale 0 (no effect) to 100 (complete control)
Summary of the method: (§2)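 Plants grow to 1- to 4-leaf stage (2–18 cm) for postemergence spraying, or to 2-leaf stage for the paddy test. Formulated compound is applied. Greenhouse holding lasts 13–15 days. Response is scored visually relative to controls, 0 no effect to 100 complete control; a dash means no result.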

large crabgrass = test: Test B pre-/postemergence herbicide test; assay type: in vivo, Digitaria sanguinalis; details: for Crabgrass, Large plant response rating: postemergence, visual rating, scale 0 (no effect) to 100 (complete control)
Summary of the method: (§3)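 Plants compared with untreated controls 13–15 days post-treatment and given a visual 0–100 injury score. Applications: preemergence to seeds; postemergence at 1- to 4-leaf (2–18 cm); paddy species flooded, 2-leaf stage. Vehicle non-phytotoxic, surfactant included.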

lambsquarters = test: Test B pre-/postemergence herbicide test; assay type: in vivo, Chenopodium album; details: for Lambsquarters plant response rating: postemergence, visual rating, scale 0 (no effect) to 100 (complete control)
Summary of the method: as §3

blackgrass = test: Test B postemergence herbicide test; assay type: in vivo, Alopecurus myosuroides; details: postemergence, visual rating, scale 0 (no effect) to 100 (complete control)
Summary of the method: as §1

morningglory = test: Test B pre-/postemergence herbicide test; assay type: in vivo, Ipomoea coccinea; details: for Morningglory plant response rating: postemergence, visual rating, scale 0 (no effect) to 100 (complete control)
Summary of the method: (§4)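 Flooded paddy rice and barnyardgrass were treated at the 2-leaf stage; upland plantings received compound either on sown seed or on 1- to 4-leaf seedlings. All were kept 13–15 days in a greenhouse and scored visually, 0–100, relative to untreated plants.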

ducksalad = test: Test B flooded paddy test; assay type: in vivo, Heteranthera limosa; details: 1000 g ai/ha, visual rating, scale 0 to 100 (0 no effect, 100 complete control), 13 to 15 days
Summary of the method: as §1

Surinam grass = test: Test B pre-/postemergence herbicide test; assay type: in vivo, Urochloa decumbens; details: for Surinam Grass plant response rating: postemergence, visual rating, scale 0 (no effect) to 100 (complete control)
Summary of the method: as §3

corn = test: Test B pre-/postemergence herbicide test; assay type: in vivo, Zea mays; details: for Corn plant response rating: postemergence, visual rating, scale 0 (no effect) to 100 (complete control)
Summary of the method: as §3

cocklebur = test: Test B pre-/postemergence herbicide test; assay type: in vivo, Xanthium strumarium; details: for Cocklebur plant response rating: postemergence, visual rating, scale 0 (no effect) to 100 (complete control)
Summary of the method: as §4

velvetleaf = test: Test B pre-/postemergence herbicide test; assay type: in vivo, Abutilon theophrasti; details: for Velvetleaf plant response rating: postemergence, visual rating, scale 0 (no effect) to 100 (complete control)
Summary of the method: as §3

barnyardgrass [2] = test: Test B pre-/postemergence herbicide test; assay type: in vivo, Echinochloa crus-galli; details: for Barnyardgrass plant response rating: postemergence, visual rating, scale 0 (no effect) to 100 (complete control)
Summary of the method: as §4

barnyardgrass [3] = test: Test B flooded paddy test; assay type: in vivo, Echinochloa crus-galli; details: 1000 g ai/ha, visual rating, scale 0 to 100 (0 no effect, 100 complete control), 13 to 15 days
Summary of the method: as §1

wheat = test: Test B postemergence herbicide test; assay type: in vivo, Triticum aestivum; set-up: key to Wheat plant response rating: 0 = no effect, 100 = complete control; details: postemergence, visual rating, scale 0 (no effect) to 100 (complete control)
Summary of the method: as §2

pigweed = test: Test B pre-/postemergence herbicide test; assay type: in vivo, Amaranthus retroflexus; details: for Pigweed plant response rating: postemergence, visual rating, scale 0 (no effect) to 100 (complete control)
Summary of the method: as §3

[4] = 125 g ai/ha, 0 = no effect, 100 = complete control, preemergence
[5] = 500 g ai/ha, visual rating 0-100, 0 no effect, 100 complete control, preemergence
[6] = preemergence, 125 g ai/ha, 0 to 100 scale, 0 is no effect, 100 is complete control

CCNC(=O)c1cccc(NC(=O)c2sc(C(C)(C)C)nc2CC)c1 [Compound 210]
Rice plant response rating (rice): 70 | Sedge, Umbrella plant response rating [1]: 80 | Oat, Wild plant response rating (wild oat; 125 g ai/ha): 20 | Oat, Wild plant response rating (wild oat; 500 g ai/ha): 20 | Crabgrass, Large plant response rating (0 to 100 scale) (large crabgrass; [4]): 90 | Plant response rating, Crabgrass, Large (large crabgrass; [5]): 90 | Crabgrass, Large plant response rating (large crabgrass; 125 g ai/ha): 20 | Crabgrass, Large plant response rating (large crabgrass; 500 g ai/ha): 20 | Lambsquarters plant response rating (0 to 100 scale) (lambsquarters; [4]): 100 | Plant response rating, Lambsquarters (lambsquarters; [5]): 100 | Lambsquarters plant response rating (lambsquarters; 125 g ai/ha): 70 | Lambsquarters plant response rating (lambsquarters; 500 g ai/ha): 80 | Blackgrass plant response rating (blackgrass; 125 g ai/ha): 10 | Blackgrass plant response rating (blackgrass; 500 g ai/ha): 30 | Morningglory plant response rating (0 to 100 scale) (morningglory; [4]): 20 | Plant response rating, Morningglory (morningglory; [5]): 30 | Morningglory plant response rating (morningglory; 125 g ai/ha): 30 | Morningglory plant response rating (morningglory; 500 g ai/ha): 70 | Ducksalad plant response rating (ducksalad): 80 | Surinam Grass plant response rating (0 to 100 scale) (Surinam grass; [4]): 60 | Plant response rating, Surinam Grass (Surinam grass; [5]): 70 | Surinam Grass plant response rating (Surinam grass; 125 g ai/ha): 20 | Surinam Grass plant response rating (Surinam grass; 500 g ai/ha): 30 | Corn plant response rating (0 to 100 scale) (corn; [4]): 20 | Plant response rating, Corn (corn; [5]): 70 | Corn plant response rating (corn; 125 g ai/ha): 20 | Corn plant response rating (corn; 500 g ai/ha): 60 | Cocklebur plant response rating (0 to 100 scale) (cocklebur; [4]): 10 | Plant response rating, Cocklebur (cocklebur; [5]): 40 | Cocklebur plant response rating (cocklebur; 125 g ai/ha): 60 | Cocklebur plant response rating (cocklebur; 500 g ai/ha): 90 | Velvetleaf plant response rating (0 to 100 scale) (velvetleaf; [4]): 10 | Plant response rating, Velvetleaf (velvetleaf; [5]): 70 | Velvetleaf plant response rating (velvetleaf; 125 g ai/ha): 30 | Velvetleaf plant response rating (velvetleaf; 500 g ai/ha): 70 | Barnyardgrass plant response rating (0 to 100 scale) (barnyardgrass [2]; [4]): 70 | Plant response rating, Barnyardgrass (barnyardgrass [2]; [5]): 90 | Barnyardgrass plant response rating (barnyardgrass [2]; 125 g ai/ha): 20 | Barnyardgrass plant response rating (barnyardgrass [2]; 500 g ai/ha): 40 | Barnyardgrass plant response rating (barnyardgrass [3]): 80 | Wheat plant response rating (wheat; 125 g ai/ha): 20 | Wheat plant response rating (wheat; 500 g ai/ha): 20 | Pigweed plant response rating (0 to 100 scale) (pigweed; [4]): 100 | Plant response rating, Pigweed (pigweed; [5]): 100 | Pigweed plant response rating (pigweed; 125 g ai/ha): 40 | Pigweed plant response rating (pigweed; 500 g ai/ha): 70

CCn1nc(C(C)(C)C)cc1C(=O)Nc1cccc(SC(F)(F)F)c1 [Compound 130]
Rice plant response rating (rice): 0 | Sedge, Umbrella plant response rating [1]: 0 | Oat, Wild plant response rating (wild oat; 125 g ai/ha): 40 | Oat, Wild plant response rating (wild oat; 500 g ai/ha): 60 | Plant response rating, Crabgrass, Large (large crabgrass; [5]): 100 | Crabgrass, Large plant response rating (large crabgrass; 125 g ai/ha): 70 | Crabgrass, Large plant response rating (large crabgrass; 500 g ai/ha): 90 | Plant response rating, Crabgrass, Large (large crabgrass; [6]): 90 | Plant response rating, Lambsquarters (lambsquarters; [5]): 70 | Lambsquarters plant response rating (lambsquarters; 125 g ai/ha): 90 | Lambsquarters plant response rating (lambsquarters; 500 g ai/ha): 100 | Plant response rating, Lambsquarters (lambsquarters; [6]): 0 | Blackgrass plant response rating (blackgrass; 125 g ai/ha): 20 | Blackgrass plant response rating (blackgrass; 500 g ai/ha): 60 | Plant response rating, Morningglory (morningglory; [5]): 10 | Morningglory plant response rating (morningglory; 125 g ai/ha): 100 | Morningglory plant response rating (morningglory; 500 g ai/ha): 100 | Plant response rating, Morningglory (morningglory; [6]): 10 | Ducksalad plant response rating (ducksalad): 10 | Plant response rating, Surinam Grass (Surinam grass; [5]): 80 | Surinam Grass plant response rating (Surinam grass; 125 g ai/ha): 50 | Surinam Grass plant response rating (Surinam grass; 500 g ai/ha): 90 | Plant response rating, Surinam Grass (Surinam grass; [6]): 60 | Plant response rating, Corn (corn; [5]): 20 | Corn plant response rating (corn; 125 g ai/ha): 20 | Corn plant response rating (corn; 500 g ai/ha): 40 | Plant response rating, Corn (corn; [6]): 10 | Plant response rating, Cocklebur (cocklebur; [5]): 0 | Cocklebur plant response rating (cocklebur; 125 g ai/ha): 100 | Cocklebur plant response rating (cocklebur; 500 g ai/ha): 100 | Plant response rating, Cocklebur (cocklebur; [6]): 0 | Plant response rating, Velvetleaf (velvetleaf; [5]): 90 | Velvetleaf plant response rating (velvetleaf; 125 g ai/ha): 70 | Velvetleaf plant response rating (velvetleaf; 500 g ai/ha): 70 | Plant response rating, Velvetleaf (velvetleaf; [6]): 10 | Plant response rating, Barnyardgrass (barnyardgrass [2]; [5]): 70 | Barnyardgrass plant response rating (barnyardgrass [2]; 125 g ai/ha): 50 | Barnyardgrass plant response rating (barnyardgrass [2]; 500 g ai/ha): 80 | Plant response rating, Barnyardgrass (barnyardgrass [2]; [6]): 10 | Barnyardgrass plant response rating (barnyardgrass [3]): 40 | Wheat plant response rating (wheat; 125 g ai/ha): 20 | Wheat plant response rating (wheat; 500 g ai/ha): 40 | Plant response rating, Pigweed (pigweed; [5]): 100 | Pigweed plant response rating (pigweed; 125 g ai/ha): 100 | Pigweed plant response rating (pigweed; 500 g ai/ha): 100 | Plant response rating, Pigweed (pigweed; [6]): 20
